How the values were obtained:
[1] = molecular target: T1, Lanosterol 14-alpha demethylase (Candida albicans (strain SC5314 / ATCC MYA-2876) (Yeast), UniProt P10613); experiment: Inhibition of Candida albicans lanosterol 14-alpha demethylase assessed as reduction of ergosterol biosynthesis at 50 ug/ml after 18 hrs by UV spectroscopy analysis
Candida albicans [2] = experiment: Antifungal activity against Candida albicans ATCC 10231 at 50 ug/ml after 48 hrs by cup plate method; format: functional; conditions: ATCC 10231, 48 h
[3] = molecular target: T1, Lanosterol 14-alpha demethylase; experiment: Inhibition of Candida albicans lanosterol 14-alpha demethylase assessed as reduction of ergosterol biosynthesis at 100 ug/ml after 18 hrs by UV spectroscopy analysis
Candida albicans [4] = experiment: Antifungal activity against Candida albicans ATCC 10231 at 10 ug/ml after 48 hrs by cup plate method; format: functional; conditions: ATCC 10231, 48 h
Candida albicans [5] = experiment: Antifungal activity against Candida albicans ATCC 10231 at 100 ug/ml after 48 hrs by cup plate method; format: functional; conditions: ATCC 10231, 48 h
[6] = molecular target: T1, Lanosterol 14-alpha demethylase; experiment: Inhibition of Candida albicans lanosterol 14-alpha demethylase assessed as reduction of ergosterol biosynthesis at 10 ug/ml after 18 hrs by UV spectroscopy analysis

T1 sequence (P10613 whole entry): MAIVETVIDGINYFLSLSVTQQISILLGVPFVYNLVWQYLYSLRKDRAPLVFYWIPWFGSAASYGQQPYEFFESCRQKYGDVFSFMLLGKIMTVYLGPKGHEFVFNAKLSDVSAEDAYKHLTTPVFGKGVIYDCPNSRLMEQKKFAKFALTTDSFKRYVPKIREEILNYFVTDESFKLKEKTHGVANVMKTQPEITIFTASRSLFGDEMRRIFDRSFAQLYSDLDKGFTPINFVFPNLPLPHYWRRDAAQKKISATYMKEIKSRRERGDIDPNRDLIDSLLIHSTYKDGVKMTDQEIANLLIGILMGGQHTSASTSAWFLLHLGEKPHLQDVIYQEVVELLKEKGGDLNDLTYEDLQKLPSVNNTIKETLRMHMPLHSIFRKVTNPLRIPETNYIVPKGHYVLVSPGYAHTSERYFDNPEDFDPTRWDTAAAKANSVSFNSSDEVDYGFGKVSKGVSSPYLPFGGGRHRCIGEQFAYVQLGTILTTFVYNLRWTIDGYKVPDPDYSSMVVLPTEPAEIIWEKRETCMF

Row | Structure (SMILES) | inhibition at 50 µg/mL [1] | inhibition at 50 µg/mL (Candida albicans [2]) | inhibition at 100 µg/mL [3] | inhibition at 10 µg/mL (Candida albicans [4]) | inhibition at 100 µg/mL (Candida albicans [5]) | inhibition at 10 µg/mL [6]
1 | c1ccc(CNCc2ccc3[nH]nnc3c2)cc1 | 48.5% | 27.4% | 66% | 12.5% | 67.7% | 46.5%
2 | Cc1ccccc1NCn1nnc2ccccc21 | 29.4% | 4.16% | 31.3% | 0% | 50.2% | 11.6%
3 | Cc1ccccc1OCc1ccc2[nH]nnc2c1 | 54% | 36.4% | 54.4% | 0% | 66.1% | 50.5%
4 | CCCCNC(=O)c1ccc2[nH]nnc2c1 | 22.7% | 27.4% | 38.1% | 4.16% | 54.3% | 7.91%
5 | OC(Cn1cncn1)(Cn1cncn1)c1ccc(F)cc1F [FLUCONAZOLE] | 47.7% | 30% | 51.2% | 12.5% | 65.5% | 45.5%
6 | CCCCNCc1ccc2[nH]nnc2c1 | 45.5% | 30% | 47.8% | 12.5% | 64.3% | 1.55%
7 | Cc1ccccc1NC(=O)c1ccc2[nH]nnc2c1 | 35.7% | 23.7% | 42.5% | 4.16% | 58.4% | 12.6%
8 | O=C(NCc1ccccc1)c1ccc2[nH]nnc2c1 | 33.1% | 28.5% | 41.3% | 4.16% | 54.1% | 15.9%
9 | Cc1ccccc1NCc1ccc2[nH]nnc2c1 | 65.8% | 34.2% | 65.8% | 0% | 67.7% | 49.9%

Reference: ChEMBL document CHEMBL3603775, “Design, synthesis and evaluation of benzotriazole derivatives as novel antifungal agents” (Bioorg Med Chem Lett, 2015)
